Source: PMC7441537 (Journal of medicinal chemistry, 2019)
Converted amounts (≈) assume the structure as drawn.

Tests used:
[1] = in vitro; conditions: human
[2] = test system: HIV-1 Y188L; format: cell-based; conditions: MT-4 cells; CC50/EC50
[3] = test system: NNRTI-resistant strain K103N+Y181C (RES056); conditions: MT-4 cells
[4] = test system: HIV-1 L100I; format: cell-based; conditions: MT-4 cells; CC50/EC50
[5] = test system: HIV-1 K103N; format: cell-based; conditions: MT-4 cells; CC50/EC50
[6] = test system: HIV-1 strains carrying single NNRTI-resistant mutations; format: cell-based; conditions: EC50 mutant/EC50 WT
[7] = test system: HIV-1 F227L+V106A; format: cell-based; conditions: MT-4 cells; CC50/EC50
[8] = test system: HIV-1 Y181C; format: cell-based; conditions: MT-4 cells; CC50/EC50
[9] = test system: WT HIV-1 (IIIB); conditions: MT-4 cells
[10] = test system: HIV-1 E138K; format: cell-based; conditions: MT-4 cells; CC50/EC50
[11] = test system: Kunming mice; experiment: Acute; format: in vivo; conditions: 800 mg/kg, 2 weeks, vs control group
[12] = in vitro; conditions: human; remark: listed apart in the source
[13] = Aqueous solubility measured by HPLC; format: physicochemical; conditions: aqueous solution, pH 2
[14] = test system: mice; experiment: Subacute toxicity with HE staining of organs; conditions: 50 mg/kg, heart, liver, spleen, lungs, kidneys
[15] = cited from earlier work
[16] = test system: RES056 (K103N+Y181C); conditions: read-out: EC50 RES056 (previously reported); cited from earlier work

| Structure (SMILES) | CC50 [1] [nM] | SI Y188L [2] | SI RES056 (CC50/EC50) [3] | SI L100I [4] | SI K103N [5] | SI F227L+V106A [7] | SI Y181C [8] | SI IIIB (CC50/EC50) [9] | SI E138K [10] | other results |
| --- | --- | --- | --- | --- | --- | --- | --- | --- | --- | --- |
| Cc1cc(C#N)cc(C)c1Oc1nc(N[C@@H]2CCN(Cc3cccc(C(N)=O)c3)C2)nc2ccsc12 [8c3, (R)-3-((3-((4-(4-Cyano-2,6-dimethylphenoxy)thieno[3,2-d]-pyrimidin-2-yl)amino)pyrrolidin-1-yl)methyl)benzamide] | > 250 |  |  |  |  |  |  |  |  |  |
| Cc1cc(C#N)cc(C)c1Oc1nc(N[C@@H]2CCN(Cc3ccc(S(C)(=O)=O)cc3)C2)nc2ccsc12 [8c4, (R)-3,5-Dimethyl-4-((2-((1-(4-(methylsulfonyl)benzyl)pyrrolidin-3-yl)amino)thieno[3,2-d]pyrimidin-4-yl)oxy)benzonitrile] | > 234 |  |  |  |  |  |  |  |  |  |
| Cc1cc(C#N)cc(C)c1Oc1nc(N[C@H]2CCN(Cc3ccc(S(N)(=O)=O)cc3)C2)nc2ccsc12 [8d1, (S)-4-((3-((4-(4-Cyano-2,6-dimethylphenoxy)thieno[3,2-d]-pyrimidin-2-yl)amino)pyrrolidin-1-yl)methyl)benzenesulfonamide] | > 233 |  |  |  |  |  |  |  |  |  |
| Cc1cc(C#N)cc(C)c1Oc1nc(N[C@H]2CCN(Cc3ccncc3)C2)nc2ccsc12 [8d5, (S)-3,5-Dimethyl-4-((2-((1-(pyridin-4-ylmethyl)pyrrolidin-3-yl)amino)thieno[3,2-d]pyrimidin-4-yl)oxy)benzonitrile] | > 273 |  |  |  |  |  |  |  |  |  |
| Cc1cc(C#N)cc(C)c1Oc1nc(NC2CCN(Cc3ccc(C(N)=O)cc3)CC2)nc2c1COC2 [13c2, 4-((4-((4-(4-Cyano-2,6-dimethylphenoxy)-5,7-dihydrofuro-[3,4-d]pyrimidin-2-yl)amino)piperidin-1-yl)methyl)benzamide] |  | > 29762 | >6039 | > 104167 | > 277778 | > 13158 | > 56818 | >156250 | > 35714 | resistance FC values range for single mutant strains [6]: 0.6–5.3; behavior, acute toxicity [11]: no significant behavior abnormalities |
| Cc1cc(C#N)cc(C)c1Oc1nc(NC2CCN(Cc3ccc(S(N)(=O)=O)cc3)CC2)nc2c1CCC2 [13d1, 4-((4-((4-(4-Cyano-2,6-dimethylphenoxy)-6,7-dihydro-5H-cyclopenta[d]pyrimidin-2-yl)amino)piperidin-1-yl)methyl)benzenesulfonamide] |  | > 16667 | >9091 | > 39683 | > 21186 | > 6579 | > 16447 | >208333 | > 5543 |  |
| Cc1cc(C#N)cc(C)c1Oc1nc(NC2CCN(Cc3ccc(S(N)(=O)=O)cc3)CC2)nc2c1SCCC2 [13f1, 4-((4-((4-(4-Cyano-2,6-dimethylphenoxy)-7,8-dihydro-6H-thiopyrano[3,2-d]pyrimidin-2-yl)amino)piperidin-1-yl)methyl)benzenesulfonamide] |  | ≥ 18525 | ≥3650 | ≥ 11488 | ≥ 28500 | ≥ 6645 | ≥ 14250 | ≥54889 | ≥ 17435 |  |
| Cc1cc(C#N)cc(C)c1Oc1nc(NC2CCN(Cc3cccc(C(N)=O)c3)CC2)nc2c1SCCC2 [13f5, 3-((4-((4-(4-Cyano-2,6-dimethylphenoxy)-7,8-dihydro-6H-thiopyrano[3,2-d]pyrimidin-2-yl)amino)piperidin-1-yl)methyl)benzamide] |  |  |  |  |  |  |  |  |  | CC50 [12]: > 4590 nM |
| Cc1cc(C#N)cc(C)c1Oc1nc(Nc2ccc(C#N)cc2)nc(N)c1Br [ETV, etravirine] |  |  |  |  |  |  |  |  |  | solubility [13]: 127 µg/mL (≈ 292 µM); organ toxicity by HE staining [14]: alveolar interstitial thickening and alveolar hemorrhage (the blue arrow) in the lung and proximal convoluted tubule edema (the red circle) in the kidney; aqueous solubility (previously reported) [15]: less than 1 μg/mL; EC50 [16]: 17 nM |
| Cc1cc(C#N)cc(C)c1Oc1nc(NC2CCN(Cc3ccc(S(N)(=O)=O)cc3)CC2)nc2ccsc12 [compound 3] |  |  |  |  |  |  |  |  |  | aqueous solubility (previously reported) [15]: less than 1 μg/mL; EC50 [16]: 30.6 nM |
